Source: patent EP4494641A1, “SITAGLIPTIN IS A MALT1 INHIBITOR” (Cloudpharm Private Company, priority 2023, dated 2025)
Where two headings read alike, the source gives them in different places.

Key:
MALT1 = target: T1, MALT1 (Homo sapiens, UniProt Q9UDY8); experiment: EC50 determination for MALT1 inhibition (Trypan blue dye-exclusion in cell lines); assay type: cell-based
T1 construct: endogenous in cells
T1 sequence (Q9UDY8 1-824): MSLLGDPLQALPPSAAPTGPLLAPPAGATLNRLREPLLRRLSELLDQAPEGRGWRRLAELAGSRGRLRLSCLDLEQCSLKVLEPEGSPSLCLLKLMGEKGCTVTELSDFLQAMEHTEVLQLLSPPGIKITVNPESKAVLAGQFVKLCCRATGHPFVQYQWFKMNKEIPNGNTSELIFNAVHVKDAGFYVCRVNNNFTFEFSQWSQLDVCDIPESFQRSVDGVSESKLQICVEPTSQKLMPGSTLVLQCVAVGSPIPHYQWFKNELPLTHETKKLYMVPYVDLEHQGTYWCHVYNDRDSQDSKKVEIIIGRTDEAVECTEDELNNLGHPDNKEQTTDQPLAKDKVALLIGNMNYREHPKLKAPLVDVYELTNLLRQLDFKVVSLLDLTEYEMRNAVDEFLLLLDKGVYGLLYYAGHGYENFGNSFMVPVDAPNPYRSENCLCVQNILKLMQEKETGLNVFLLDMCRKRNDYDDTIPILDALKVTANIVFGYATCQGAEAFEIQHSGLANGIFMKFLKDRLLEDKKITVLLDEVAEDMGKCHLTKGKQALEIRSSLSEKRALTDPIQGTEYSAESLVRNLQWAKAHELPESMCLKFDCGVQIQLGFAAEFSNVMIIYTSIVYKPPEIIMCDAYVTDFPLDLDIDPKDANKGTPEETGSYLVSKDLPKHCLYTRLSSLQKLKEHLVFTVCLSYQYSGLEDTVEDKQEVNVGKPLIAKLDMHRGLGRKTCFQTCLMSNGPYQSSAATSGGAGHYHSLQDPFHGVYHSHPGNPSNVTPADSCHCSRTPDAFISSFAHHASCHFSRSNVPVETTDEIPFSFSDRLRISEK
Text: The term is quite general, regardless of whether a test-compound enhances or diminishes the biological parameter in question. Its equation is a modified version of the IC50 equation, taking the ratio of the response (R) to the maximum response (Rmax): {R/Rmax} = {1/ [1+(E50/I)n]}. […] However, some test-compounds achieve only partial attenuation of a biological activity, even at high concentrations. In this case, IC50 values may be misleading about potency.
Cell lines were in log phase of growth, harvested and seeded in a 96-well plate at optimum plating density. Next, cells were incubated with and without test-compounds (0.1 µM - 1 µM - 10 µM) in the presence of positive, negative and untreated controls.

CYP2B6 = target: T2, CYP2B6 (Homo sapiens, UniProt P20813); experiment: CYP450 inhibition/induction, baculosomes, fluorescent substrate, kinetic model; assay type: in vitro ADME; conditions: 1 µM; 20°C; t = 60 min
T2 construct: purchased Thermo Fisher Scientific (Waltham, MA, USA); host or cells: baculosomes
T2 sequence (P20813 1-491): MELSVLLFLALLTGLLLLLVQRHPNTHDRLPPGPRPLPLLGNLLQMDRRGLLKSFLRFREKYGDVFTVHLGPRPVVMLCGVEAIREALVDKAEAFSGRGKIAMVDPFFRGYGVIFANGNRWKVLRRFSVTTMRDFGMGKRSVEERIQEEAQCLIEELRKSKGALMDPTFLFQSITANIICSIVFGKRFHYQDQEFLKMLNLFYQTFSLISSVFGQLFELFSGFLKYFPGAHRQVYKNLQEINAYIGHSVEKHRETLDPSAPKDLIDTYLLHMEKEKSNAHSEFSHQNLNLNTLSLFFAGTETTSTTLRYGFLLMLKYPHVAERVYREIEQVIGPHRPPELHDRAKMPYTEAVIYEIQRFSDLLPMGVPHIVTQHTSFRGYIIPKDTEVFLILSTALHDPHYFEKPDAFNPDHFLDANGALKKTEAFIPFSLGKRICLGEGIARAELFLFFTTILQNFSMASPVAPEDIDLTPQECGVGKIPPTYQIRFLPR
Description: (§1) To determine the isozyme-specific CYP450-metabolism, baculosomes® expressing CYP1A2, CYP2A6, CYP2B6, CYP2C9, CYP2C19, CYP2D6 and CYP3A4 human CYP450 isoenzymes were purchased from Thermo Fisher Scientific (Waltham, MA, USA). All reagents were handled and prepared according to the manufacturer's protocol. Sitagliptin was tested at 1 µM. Enzymatic activity in the presence of sitagliptin was assessed based on the kinetic model for CYP1A2, CYP2A6, CYP2B6, CYP2C9, CYP2C19, CYP2D6 and CYP3A4 isoforms. Reactions took place in triplicates at 20°C. Glucose-6-phosphate at 333 mM and glucose-6-phosphate-dehydrogenase at 30 U/mL in 100 mM potassium phosphate, pH 8.0 (regeneration system) converted NADP+ (10 mM in 100 mM potassium phosphate, pH 8.0) into NADPH to initiate the CYP450 reaction. Upon the addition of the fluorescent substrate, immediately (<2 min), the fluorescence signal was monitored over time at suitable excitation and emission wavelengths by Lionheart FX (BioTek, Winooski, VT, USA). CYP450 inhibition (%) was determined based on the reaction rates (fluorescence intensity changes per unit time).

CYP2A6 = target: T3, CYP2A6 (Homo sapiens, UniProt P11509); experiment: as above; assay type: in vitro ADME; conditions: 1 µM; 20°C; t = 60 min
T3 construct: purchased Thermo Fisher Scientific (Waltham, MA, USA); host or cells: baculosomes
T3 sequence (P11509 1-494): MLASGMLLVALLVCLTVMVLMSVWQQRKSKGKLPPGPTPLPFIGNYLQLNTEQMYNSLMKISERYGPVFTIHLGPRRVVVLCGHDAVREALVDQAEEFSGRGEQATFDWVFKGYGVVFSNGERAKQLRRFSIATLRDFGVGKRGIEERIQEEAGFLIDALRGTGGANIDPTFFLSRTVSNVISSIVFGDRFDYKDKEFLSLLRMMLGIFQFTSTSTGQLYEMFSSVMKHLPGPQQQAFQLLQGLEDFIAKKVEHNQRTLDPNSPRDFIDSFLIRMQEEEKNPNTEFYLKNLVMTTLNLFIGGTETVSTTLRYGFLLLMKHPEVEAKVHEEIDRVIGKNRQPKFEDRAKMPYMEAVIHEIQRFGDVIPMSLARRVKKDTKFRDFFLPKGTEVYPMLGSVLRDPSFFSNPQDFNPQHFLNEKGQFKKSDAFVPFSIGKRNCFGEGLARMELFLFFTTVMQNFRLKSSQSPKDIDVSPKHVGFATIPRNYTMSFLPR
Description: as §1

CYP2C9 = target: T4, CYP2C9 (Homo sapiens, UniProt P11712); experiment: as above; assay type: in vitro ADME; conditions: 1 µM; 20°C; t = 60 min
T4 construct: purchased Thermo Fisher Scientific (Waltham, MA, USA); host or cells: baculosomes
T4 sequence (P11712 whole entry): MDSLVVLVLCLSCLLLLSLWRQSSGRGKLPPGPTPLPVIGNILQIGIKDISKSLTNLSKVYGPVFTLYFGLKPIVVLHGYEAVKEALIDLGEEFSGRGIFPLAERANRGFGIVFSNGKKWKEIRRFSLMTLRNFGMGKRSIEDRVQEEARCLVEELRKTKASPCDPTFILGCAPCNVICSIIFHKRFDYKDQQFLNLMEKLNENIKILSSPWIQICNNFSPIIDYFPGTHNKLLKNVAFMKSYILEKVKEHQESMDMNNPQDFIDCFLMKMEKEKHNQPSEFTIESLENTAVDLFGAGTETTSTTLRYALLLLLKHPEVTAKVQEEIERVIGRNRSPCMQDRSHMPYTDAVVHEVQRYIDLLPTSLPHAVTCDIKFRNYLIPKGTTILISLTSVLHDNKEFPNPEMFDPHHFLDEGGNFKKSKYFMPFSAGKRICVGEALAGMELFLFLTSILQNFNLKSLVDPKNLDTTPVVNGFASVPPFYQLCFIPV
Description: as §1

CYP2D6 = target: T5, CYP2D6 (Homo sapiens, UniProt P10635); experiment: as above; assay type: in vitro ADME; conditions: 1 µM; 20°C; t = 60 min
T5 construct: purchased Thermo Fisher Scientific (Waltham, MA, USA); host or cells: baculosomes
T5 sequence (P10635 whole entry): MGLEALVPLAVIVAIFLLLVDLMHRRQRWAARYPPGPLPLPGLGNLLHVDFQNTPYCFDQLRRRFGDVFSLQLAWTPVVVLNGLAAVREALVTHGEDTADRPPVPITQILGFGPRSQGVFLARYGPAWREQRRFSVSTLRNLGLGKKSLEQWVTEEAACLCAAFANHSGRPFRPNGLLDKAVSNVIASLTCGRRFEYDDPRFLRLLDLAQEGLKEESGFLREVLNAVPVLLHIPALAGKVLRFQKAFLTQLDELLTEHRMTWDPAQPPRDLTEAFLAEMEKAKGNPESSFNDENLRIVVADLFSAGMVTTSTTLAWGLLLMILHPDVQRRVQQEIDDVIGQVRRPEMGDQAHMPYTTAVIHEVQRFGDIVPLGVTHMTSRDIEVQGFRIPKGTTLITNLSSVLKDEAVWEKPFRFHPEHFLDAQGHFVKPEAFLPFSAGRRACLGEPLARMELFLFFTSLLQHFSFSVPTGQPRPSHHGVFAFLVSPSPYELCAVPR
Description: as §1

CYP2C19 = target: T6, CYP2C19 (Homo sapiens, UniProt P33261); experiment: as above; assay type: in vitro ADME; conditions: 1 µM; 20°C; t = 60 min
T6 construct: purchased Thermo Fisher Scientific (Waltham, MA, USA); host or cells: baculosomes
T6 sequence (P33261 whole entry): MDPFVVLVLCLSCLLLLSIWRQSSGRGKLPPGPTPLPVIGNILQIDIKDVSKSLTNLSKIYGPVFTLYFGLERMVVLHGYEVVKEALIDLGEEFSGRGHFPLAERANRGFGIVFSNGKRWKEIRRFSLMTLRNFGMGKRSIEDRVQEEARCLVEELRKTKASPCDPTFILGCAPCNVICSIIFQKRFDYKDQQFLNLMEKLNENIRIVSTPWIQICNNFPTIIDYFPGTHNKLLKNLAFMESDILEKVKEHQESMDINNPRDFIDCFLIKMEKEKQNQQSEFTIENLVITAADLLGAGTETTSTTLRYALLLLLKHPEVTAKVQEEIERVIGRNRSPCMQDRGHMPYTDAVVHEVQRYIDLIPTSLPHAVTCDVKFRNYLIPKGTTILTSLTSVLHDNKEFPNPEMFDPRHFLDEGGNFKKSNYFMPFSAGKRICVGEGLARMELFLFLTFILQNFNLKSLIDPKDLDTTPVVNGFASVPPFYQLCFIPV
Description: as §1

CYP1A2 = CYP1A2 (Homo sapiens, UniProt P05177); experiment: as above; assay type: in vitro ADME; conditions: 1 µM; 20°C; t = 60 min
Sequence of CYP1A2 (P05177 whole entry): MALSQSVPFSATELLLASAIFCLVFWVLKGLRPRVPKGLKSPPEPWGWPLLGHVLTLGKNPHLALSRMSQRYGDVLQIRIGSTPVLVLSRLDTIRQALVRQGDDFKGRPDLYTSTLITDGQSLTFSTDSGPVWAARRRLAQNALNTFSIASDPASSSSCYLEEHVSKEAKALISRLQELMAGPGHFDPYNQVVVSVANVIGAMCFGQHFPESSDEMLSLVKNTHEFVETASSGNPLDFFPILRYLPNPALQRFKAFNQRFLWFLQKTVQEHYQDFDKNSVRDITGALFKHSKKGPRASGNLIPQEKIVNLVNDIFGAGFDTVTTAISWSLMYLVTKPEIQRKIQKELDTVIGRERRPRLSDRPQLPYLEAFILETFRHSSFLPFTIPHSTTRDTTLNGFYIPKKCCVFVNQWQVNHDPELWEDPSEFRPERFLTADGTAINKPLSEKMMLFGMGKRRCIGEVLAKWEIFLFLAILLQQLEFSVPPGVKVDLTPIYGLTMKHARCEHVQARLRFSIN
Description: as §1

CYP3A4 = target: T7, CYP3A4 (Homo sapiens, UniProt P08684); experiment: as above; assay type: in vitro ADME; conditions: 1 µM; 20°C; t = 60 min
T7 construct: purchased Thermo Fisher Scientific (Waltham, MA, USA); host or cells: baculosomes
T7 sequence (P08684 whole entry): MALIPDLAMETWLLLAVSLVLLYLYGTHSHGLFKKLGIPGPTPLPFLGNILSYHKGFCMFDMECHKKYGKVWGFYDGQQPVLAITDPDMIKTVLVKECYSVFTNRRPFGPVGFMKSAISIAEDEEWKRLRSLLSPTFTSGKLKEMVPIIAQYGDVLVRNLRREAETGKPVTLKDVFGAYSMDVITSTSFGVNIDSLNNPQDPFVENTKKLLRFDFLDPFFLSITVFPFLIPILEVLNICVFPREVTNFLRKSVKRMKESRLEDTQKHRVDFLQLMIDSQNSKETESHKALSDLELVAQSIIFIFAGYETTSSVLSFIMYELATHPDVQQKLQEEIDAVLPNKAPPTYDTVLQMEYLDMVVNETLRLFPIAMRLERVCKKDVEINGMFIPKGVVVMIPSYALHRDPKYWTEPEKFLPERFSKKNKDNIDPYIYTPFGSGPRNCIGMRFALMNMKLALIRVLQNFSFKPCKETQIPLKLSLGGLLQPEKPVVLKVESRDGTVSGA
Description: as §1

[1] = system: patient-derived glioblastoma cells (U3024); experiment: Spheroid disintegration in patient-derived glioblastoma cells over-expressing MALT1; assay type: cell-based, human; conditions: 10 µM; U3024 spheroids compared to untreated spheroids
Text: (§2) To measure the MALT1-dependent antiproliferative effect of sitagliptin on GMB cell growth and at the same time account for biases, U3024, an established and characterized GBM cell line derived from GBM patient surgical samples was chosen (https://www.hgcc.se/). U3024 is of mesenchymal subtype (person) and is characterized by MALT1 overexpression. Cell lines were maintained in serum-free neural stem cell media to retain tumour-initiating capacity as well as tumour specific phenotypes (Pollard et al, 2009). The U87MG glioma cell line served as a bona fide human glioblastoma cell line. Cell cultures were performed in 3D. […] Cell lines were in log phase of growth, harvested and seeded in a 96-well plate at optimum plating density. […] DMSO was <0.05%.

[2] = system: Glioblastoma multiforme (GBM) cell growth (U3024, U87MG); experiment: Antiproliferative effect on GBM cell growth, 3D cell cultures; assay type: cell-based, human; conditions: tested at 0.1 µM, 1 µM, and 10 µM at t=48h, 3D cultures
Text: as §2, with “<0.05%. […] The results are mean ± standard deviation of three independent experiments done in triplicates. […] Three independent experiments were performed in triplicates.” for “<0.05%.”

[3] = target: T8, recombinant full-length human MALT1 (Homo sapiens, UniProt Q9UDY8); experiment: Fluorogenic MALT1 proteolytic activity assay with Ac-LRSR-AMC substrate; assay type: biochemical; conditions: read-out: percent inhibition of MALT1 proteolytic activity
T8 construct: recombinant full-length human MALT1
T8 sequence (Q9UDY8 1-824): T1 sequence (Q9UDY8 1-824)
Description: Fluorogenic reactions were monitored in the presence of recombinant full-length human MALT1 and Ac-LRSR-AMC (Ac-Leu-Arg-Ser-Arg-7-amino-4-methylcoumarin) - SEQ ID NO:1 - with excitation/emission wavelengths of 360/460 nm in black, low binding microtiter plates using a microplate reader. Cleavage of the Ac-LRSR-AMC substrate by MALT1 results in the release of AMC and a fluorescent signal. […] The final percent inhibition was calculated with the formula: {[fluorescence_test compound(T2-T1) - fluorescence_negative control (T2-T1)]/ [fluorescence_positive control (T2-T1) - fluorescence_negative control (T2-T1)]} × 100. […] A so-called buffer only test-condition (i.e. MALT1+Ac-LRSR-AMC substrate+buffer) served as negative control. […] MI-2 (C19H17Cl3N4O3; 2-chloro-N-[4-[5-(3,4-dichlorophenyl)-3-(2-methoxyethoxy)-1,2,4-triazol-1-yl] phenyl] acetamide) is an orthosteric and irreversible MALT1 inhibitor (Fontán et al, 2012).

Row | CYP2B6 inhibition / induction (CYP2B6) | CYP2A6 inhibition / induction (CYP2A6) | CYP2C9 inhibition / induction (CYP2C9) | CYP2D6 inhibition / induction (CYP2D6) | CYP2C19 inhibition / induction (CYP2C19) | CYP1A2 inhibition / induction (CYP1A2) | CYP3A4 inhibition / induction (CYP3A4) | inhibition at 10 µM [3] | EC50 (MALT1; 0.1 µM - 1 µM - 10 µM, Trypan blue dye-exclusion at t=48h, mean of three independent experiments in triplicates, read-out: EC50 values) | SMILES | EC50 (MALT1) | inhibition of MALT1 resulting in spheroid disintegration [1] | antiproliferative effect on GBM cell growth [2]
1 | – | – | – | – | – | – | – | – | – | COCCOc1nc(-c2ccc(Cl)c(Cl)c2)n(-c2ccc(NC(=O)CCl)cc2)n1 [MI-2, 2-chloro-N-[4-[5-(3,4-dichlorophenyl)-3-(2-methoxyethoxy)-1,2,4-triazol-1-yl]phenyl] acetamide] | 1000 nM | – | –
2 | does not inhibit nor induces | does not inhibit nor induces | does not inhibit nor induces | does not inhibit nor induces | does not inhibit nor induces | does not inhibit nor induces | does not inhibit nor induces | ≥ 40% | 1300 nM | N[C@@H](CC(=O)N1CCn2c(nnc2C(F)(F)F)C1)Cc1cc(F)c(F)cc1F [Sitagliptin, (3R)-3-amino-1-[3-(trifluoromethyl)-6,8-dihydro-5H-[1,2,4]triazolo[4,3-a]pyrazin-7-yl]-4-(2,4,5-trifluorophenyl)butan-1-one] | – | spheroid disintegration | strong antiproliferative effect
